Laboratory results as given in patent US20250228865A1, “COMPOUNDS FOR ENHANCING READ THROUGH OF GENES CONTAINING PREMATURE TERMINATION CODONS AND METHODS FOR MAKING AND USING THE SAME” (Sanofi US Services Inc., priority 2022, published 2025).

What was measured:
[1] = system: recombinant human CFTR carrying the premature stop codon (PTC) mutation R1162X; assay: CFTR-PTC mutant translation readthrough, Nanoluc tagged CFTR luminescence (R1162X cell line); assay type: cell-based; conditions: for CFTR R1162X ACTIVITY Fold 10 μM G-418: fold over 10 μM G-418, in combination with G418; for EC50: in combination with G418, 16HBE cells, read-out: CFTR R1162X ACTIVITY EC50
Outline: (§1)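 Readthrough is the 48 h compound-induced luminescence increase scaled to that of maximal G418 (125-250 μM). Compounds run from 50 μM final in 2-fold steps, ±10 μM G418, on 16HBE lines carrying Nanoluc-tagged CFTR G542X (extracellular loop 4 tag) or R1162X (C-terminal tag), with 3 μM VX-809 present.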

[2] = system: recombinant human CFTR carrying the premature stop codon (PTC) mutation G542X; assay: CFTR-PTC mutant translation readthrough, Nanoluc tagged CFTR luminescence (G542X cell line); assay type: cell-based; conditions: in combination with G418, G542X cell line; for CFTR G542X ACTIVITY Fold 10 μM G-418: fold over 10 μM G-418; for EC50: 16HBE cells
Outline: as §1

SMILES	EC50 [1] [µM]	EC50 [2] [µM]	CFTR R1162X ACTIVITY Fold 10 μM G-418 [1]	CFTR G542X ACTIVITY Fold 10 μM G-418 [2]
OCc1ccn(-c2ncc(OC(F)(F)c3c(Cl)cccc3Cl)cn2)n1	> 10	> 10		
O=CN[C@@H](CO)C(=O)Nc1ccc(OCc2c(Cl)cccc2Cl)cn1	> 10	> 10	B′ (B′ = ≥5X to <10X)	
Cc1cccc(C(F)(F)F)c1COc1cnc(N2C[C@H](O)C[C@H](O)C2)nc1	1 to 10	1 to 10	A′ (A′ = ≥10X)	A′ (A′ = ≥10X)
OC[C@H]1CN(c2ncc(OCc3c(Cl)cccc3Cl)cn2)C[C@@H](C(F)(F)F)O1 (racemic)	1 to 10	1 to 10	A′ (A′ = ≥10X)	A′ (A′ = ≥10X)
C[C@H]1CO[C@H](CO)CN1c1ncc(OCc2c(Cl)cccc2Cl)cn1 (racemic)	1 to 10	1 to 10	A′ (A′ = ≥10X)	A′ (A′ = ≥10X)
OC[C@@H]1CN(c2ncc(OCc3c(Cl)cccc3Cl)cn2)C[C@@H](C(F)(F)F)O1 (racemic)	1 to 10	< 1	B′ (B′ = ≥5X to <10X)	A′ (A′ = ≥10X)
CC(=O)N1CCN(c2ncc(OCc3c(C)cccc3C(F)(F)F)cn2)CC1CN (racemic)	1 to 10	1 to 10	C′ (C′ = <5X)	C′ (C′ = <5X)
C[C@@H](O)[C@@H]1CN(c2ncc(OCc3c(Cl)cccc3Cl)cn2)CCO1 (racemic)	> 10	1 to 10	A′ (A′ = ≥10X)	A′ (A′ = ≥10X)
OC[C@@H]1CN(c2ncc(OCc3c(Cl)cccc3Cl)cn2)CC[C@@H]1O (racemic)	1 to 10	< 1	A′ (A′ = ≥10X)	A′ (A′ = ≥10X)
O=C(O)c1ncn(-c2ccc(OCc3c(Cl)cccc3C(F)(F)F)cn2)n1 [1-(5-{[2-chloro-6-(trifluoromethyl)phenyl]methoxy]pyridin-2-]	> 10	1 to 10		C′ (C′ = <5X)

Continued, in another order:

EC50 [1] [µM]	EC50 [2] [µM]	SMILES	CFTR R1162X ACTIVITY Fold 10 μM G-418 [1]	CFTR G542X ACTIVITY Fold 10 μM G-418 [2]
1 to 10	1 to 10	Cc1cccc(OC(F)F)c1COc1ccc(-n2cnc(CO)n2)cc1	B′ (B′ = ≥5X to <10X)	B′ (B′ = ≥5X to <10X)
1 to 10	1 to 10	OCc1ncn(-c2ccc(OCc3c(Cl)cccc3OC(F)F)cc2)n1	B′ (B′ = ≥5X to <10X)	A′ (A′ = ≥10X)
1 to 10	1 to 10	OCc1ncn(-c2ccc(OCc3c(Cl)cccc3OC(F)(F)F)cc2)n1	A′ (A′ = ≥10X)	A′ (A′ = ≥10X)
1 to 10	1 to 10	Cc1cccc(OC(F)F)c1COc1cnc(-n2ccc(CO)n2)nc1	C′ (C′ = <5X)	A′ (A′ = ≥10X)
1 to 10	1 to 10	OCc1cn(-c2ncc(OCc3c(Cl)cccc3OC(F)F)cn2)cn1	B′ (B′ = ≥5X to <10X)	A′ (A′ = ≥10X)
1 to 10	< 1	OCc1ccn(-c2ncc(OCc3c(Cl)cccc3OC(F)(F)F)cn2)n1	B′ (B′ = ≥5X to <10X)	A′ (A′ = ≥10X)
1 to 10	< 1	Cc1cccc(C(F)(F)F)c1COc1ccc(-n2cnc(CN)c2)nc1	A′ (A′ = ≥10X)	A′ (A′ = ≥10X)
1 to 10	< 1	OCc1cnn(-c2ncc(OCc3c(Cl)cccc3C(F)(F)F)cn2)n1		A′ (A′ = ≥10X)
1 to 10	> 10	NC1(CO)CCN(c2ncc(OCc3c(Cl)cccc3C(F)(F)F)cn2)C1 (stereo not drawn)	B′ (B′ = ≥5X to <10X)	A′ (A′ = ≥10X)
1 to 10	1 to 10	O=C1O[C@@H](CO)CN1c1ccc(OCc2c(Cl)cccc2C(F)(F)F)cn1	A′ (A′ = ≥10X)	A′ (A′ = ≥10X)
1 to 10	1 to 10	O=C1O[C@H](CO)CN1c1ccc(OCc2c(Cl)cccc2C(F)(F)F)cn1	A′ (A′ = ≥10X)	A′ (A′ = ≥10X)
1 to 10	1 to 10	O=C1CN(c2ncc(OCc3c(Cl)cccc3C(F)(F)F)cn2)C[C@H](CO)N1	A′ (A′ = ≥10X)	A′ (A′ = ≥10X)
< 1	< 1	C[C@H]1CO[C@@H](CO)CN1c1ncc(OCc2c(Cl)cccc2Cl)cn1 (racemic)	A′ (A′ = ≥10X)	A′ (A′ = ≥10X)
